Measured values: the NIST ThermoML archive (doi:10.1016/j.jct.2012.01.005)
Numbers after ± are expanded uncertainties.

Legend:
[1] = Liquid; for mass density: 298.15 K, 101.33 kPa, Buoyancy - hydrostatic balance
[2] = refractive index (Na D-line) (dimensionless); settings: 298.15 K; 101.33 kPa; Liquid; Standard Abbe refractometry

ClCC1CO1 (stereo not drawn) [1-chloro-2,3-epoxypropane]
Settings | mass density [kg/m3] | refractive index
[1] | 1175.9 ± 12 | –
[2] | – | 1.434 ± 0.002

[1], Visual
Settings | vapor or sublimation pressure [kPa]
370.95 K | 55.99 ± 2.1
384.15 K | 88.66 ± 3.4
389.35 K | 100 ± 4.2

CCCC(=O)OCC1CO1 (stereo not drawn) [glycidyl butyrate]
Settings | mass density [kg/m3] | refractive index
[1] | 1047 ± 10 | –
[2] | – | 1.429 ± 0.002

[1], Closed cell (Static) method
Settings | vapor or sublimation pressure [kPa]
407.85 K | 15.74 ± 1.2
420.25 K | 23.87 ± 1.2
427.85 K | 29.87 ± 1.3
434.15 K | 36.41 ± 1.3
439.15 K | 41.34 ± 1.3
444.25 K | 46.67 ± 1.3
449.15 K | 55.99 ± 2.8
449.25 K | 54.4 ± 1.3
453.85 K | 62.67 ± 1.3
458.15 K | 69.6 ± 1.3
460.45 K | 74.67 ± 1.3
464.55 K | 82.67 ± 1.3
466.55 K | 87.33 ± 1.3
467.15 K | 88.66 ± 4.1
468.75 K | 93.33 ± 1.4
471.15 K | 100 ± 1.4
